{"source": "patent US5612208A", "about": "“Ascorbate oxidase, gene encoding the same, process for producing the same, and reagent composition using the same” (Amano Pharmaceutical Co., Ltd., priority 1994, dated 1997)", "key": {"[1]": {"tested_on": "ascorbate oxidase of microorganism of the genus Trichoderma or Mortierella (JP-A-6-209770)", "settings": "data from JP-A-6-209770; cited from earlier work"}, "[2]": {"tested_on": "L-ascorbate oxidase (ASOD) of Eupenicillium brefeldianum APC-9315, purified native enzyme", "assay_type": "biochemical", "protocol": "The relative residual activity of ASOD after incubation with various inhibitors at 37° C. for 2 hours.\n(§1) To 0.1 ml of a sample to be assayed is added 0.5 ml of 10 mM Na2 HPO4 and 0.45 ml of 0.2M KH2 PO4 containing 1 mM EDTA, and the mixture is mixed and preincubated at 30° C. for 5 minutes. To the mixture is added 0.05 ml of a 10 mM substrate solution of L-ascorbic acid in 0,001N HCl containing 1 mM EDTA, followed by incubation at 30° C. for 10 minutes. The reaction is stopped by addition of 3.0 ml of 0.2N HCl, and a reduction in absorbance at 245 nm is measured. The amount of ASOD in the sample which decomposes 1 μmol of L-ascorbic acid per 1 minute is taken as one unit."}, "[3]": {"target": "T1, ascorbate oxidase (ASO) of cucumber (Cucumis sativus, UniProt P14133)", "T1 construct": "cucumbers (T. Nakamura, N. Makino and Y. Ogura, J. Biochem., Vol. 64, p. 189 (1968)); host or cells: enzyme isolated from cucumbers", "T1 sequence (P14133 34-587)": "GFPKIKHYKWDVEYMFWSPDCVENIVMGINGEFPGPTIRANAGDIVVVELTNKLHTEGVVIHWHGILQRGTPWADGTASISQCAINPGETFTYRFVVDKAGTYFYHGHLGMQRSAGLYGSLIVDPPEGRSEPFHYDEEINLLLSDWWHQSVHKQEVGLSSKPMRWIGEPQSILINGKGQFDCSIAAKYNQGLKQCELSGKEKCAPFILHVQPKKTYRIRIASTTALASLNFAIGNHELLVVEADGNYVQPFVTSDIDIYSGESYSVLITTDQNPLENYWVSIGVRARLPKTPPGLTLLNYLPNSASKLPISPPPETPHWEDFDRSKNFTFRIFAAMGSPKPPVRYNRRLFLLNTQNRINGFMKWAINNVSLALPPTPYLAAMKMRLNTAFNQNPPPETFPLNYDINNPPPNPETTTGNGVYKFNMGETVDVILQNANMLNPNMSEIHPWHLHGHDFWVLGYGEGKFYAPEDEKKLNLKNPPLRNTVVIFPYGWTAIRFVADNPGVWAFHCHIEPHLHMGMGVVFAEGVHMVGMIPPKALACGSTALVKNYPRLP", "settings": "data from J. Biochem., 64 189 (1968); cited from earlier work"}, "[4]": {"tested_on": "ascorbate oxidase (ASO) of Acremonium sp. HI-25", "settings": "data from Biosci. Biotechnol. Biochem., 56 (6), 847-852 (1992) & JP-A-3-236766; cited from earlier work"}, "[5]": {"tested_on": "ascorbate oxidase (ASO) from spores of Myrothecium verrucaria", "settings": "data from Nihon Eiyo-Shokuryo Gakkaishi, 40, (1), 47-51 (1987); cited from earlier work"}, "[6]": {"tested_on": "ascorbate oxidase of microorganism of the genus Trichoderma or Mortierella (JP-A-6-209770)", "settings": "data from JP-A-6-209770; read-out: Km (L-Ascorbate); cited from earlier work"}, "[7]": {"tested_on": "ascorbate oxidase (ASO) from spores of Myrothecium verrucaria", "settings": "data from Nihon Eiyo-Shokuryo Gakkaishi, 40, (1), 47-51 (1987); read-out: Km (L-Ascorbate); cited from earlier work"}, "[8]": {"tested_on": "L-ascorbate oxidase (ASOD) of Eupenicillium brefeldianum APC-9315, purified native enzyme", "assay": "Michaelis constant (Km) for L-ascorbic acid, spectrophotometry method", "assay_type": "biochemical", "settings": "by the spectrophotometry method", "protocol": "(8) Michaelis Constant (Km) for L-Ascorbic Acid\n4.9×10^-4 M (by the spectrophotometry method)\nas §1"}, "[9]": {"settings": "incubation with inhibitor at 37° C. for 2 hours, inhibitor concentration not printed"}}, "note": "Read-outs that look alike come from different tables or passages of the source."}
{"compound": "O=C(O)CI", "note": "[monoiodoacetic acid]", "values": [{"measurement": "Inhibition by inhibitor, in words", "setting": "[1]", "result": "uninhibited"}, {"measurement": "Inhibition by inhibitor", "setting": "[2]", "result": 50, "unit": "%"}, {"measurement": "Inhibition by inhibitor (relative residual activity), in words", "setting": "[2]", "result": "inhibited partially"}]}
{"compound": "O[C@H](CS)[C@H](O)CS", "note": "(racemic) [dithiothreitol]", "values": [{"measurement": "Inhibition by inhibitor (relative residual activity), in words", "setting": "[2]; [9]", "result": "not substantially inhibited"}]}
{"compound": "[N-]=[N+]=[N-]", "note": "[sodium azide]", "values": [{"measurement": "Inhibition by inhibitor, in words", "setting": "[3]", "result": "inhibited"}, {"measurement": "Inhibition by inhibitor (relative residual activity), in words", "setting": "[2]; [9]", "result": "not substantially inhibited"}, {"measurement": "Inhibition by inhibitor (relative residual activity), in words", "setting": "[2]; incubation with inhibitor at 37° C. for 2 hours, inhibitor concentration not printed, listed as Sodium Azide", "result": "uninhibited"}, {"measurement": "Inhibition by inhibitor, in words", "setting": "[4]", "result": "inhibited"}, {"measurement": "Inhibition by inhibitor, in words", "setting": "[5]", "result": "uninhibited"}]}
{"compound": "O=C1O[C@H]([C@@H](O)CO)C(O)=C1O", "note": "[L-Ascorbic Acid, L-ascorbic acid]", "values": [{"measurement": "Km", "setting": "[6]", "result": 700, "unit": "µM"}, {"measurement": "Km", "setting": "[7]", "result": 3000, "unit": "µM"}, {"measurement": "Km", "setting": "[8]", "result": 490, "unit": "µM"}]}
